The test system of assay [1] is S. aureus Col (Meth^R) (lac^-). Description: MIC by agar dilution, S. aureus Col (Meth^R) (lac^-). The class given is cell-based. The note with it: Staphylococcus aureus; agar dilution; S. aureus Col (Meth^R) (lac^-); read-out: MIC. A digest of the protocol: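 Agar dilution per NCCLS (1991): two-fold dilutions from 128 μg/mL down to ≤0.25 μg/mL in Mueller-Hinton agar, each level in duplicate. Spots of about 10^4 cfu of log-phase culture; 16-20 h at 35°-36° C. MIC in μg/ml is the lowest concentration inhibiting growth.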
A general note: In agar dilution, organisms are placed on agar that contains the substance at set levels.

Assay [2] concerns methicillin-susceptible S. aureus strain ATCC 13709. Description: murine model for lethal bacteremic peritonitis. The class given is in vivo, female Swiss-Webster mice. The note with it: subcutaneous, 72 h. The method, then:
Groups of 5 female Swiss-Webster mice (Simonsen, Gilroy, Calif.) each are challenged by the intraperitoneal (IP) route with tenfold increments of a bacterial inoculum. This permits calculation of the mean lethal dose (LD50) and the LD100. For preliminary evaluation of a new antibiotic, mice are challenged IP with an LD100 titer of bacteria. In two equal doses administered at the time of bacterial challenge and 2 hours later, groups of 10 mice each are treated subcutaneously with two-fold increments of the test drug and an antibiotic of known efficacy in mice and humans (i.e., positive control). Mice are observed for 72 h. Those alive at 72 h are considered long term survivors. The total drug dose in mg/kg that protects 50% of mice in a group from death is termed the mean protective dose (PD50). PD50 s are similarly determined for several pathogens. The quantitative endpoints for the new drug are then compared with those obtained with reference antibiotics.
Six ten-fold dilutions of inoculum suspended in 0.5 mL of sterilized 7% hog gastric mucin (Sigma) are injected IP in groups of 5 mice each. A control group of 5 mice receive mucin alone. Mice are observed for 72 h. Those alive at 72 h are considered long term survivors. The mean lethal dose (LD50) and 100% lethal dose (LD100) are determined by the probit test.
For antibiotic efficacy studies, mice are challenged IP with bacterial titers that will afford an LD100 for the test strain. In two equal doses administered at the time of bacterial challenge and 2 hours later, groups of 10 mice each are treated by the subcutaneous route (SC) with twofold increments of the test antibiotic; another group is treated similarly with a reference antibiotic of known efficacy in animals and man. Drug doses can range from 0.01 to 512 mg/kg. If the drug is poorly soluble, Tween 20 or propylene glycol will be employed to solubilize the drug. Animals are observed for 72 h. The 50% protective dose (PD50) is calculated in mg/kg by the probit method. The PD50 is the same as the 50% effective dose (ED50) and the 50% curative dose (CD50). Samples of blood from the hearts of all animals that die and from half the mice that survive are cultured on brain-heart infusion agar. Animals that received a protective dosage of the test drug will be alive at 72 h, although they may appear moderately ill to very ill during the observation period. […] Most of these mice will die within 6 to 48 h. Those alive at 72 h will be considered long term survivors.
(Compound numbers correspond to those in MIC tables; data
reported for challenge with methicillin-susceptible S. aureus

Values after ≈ are worked out from the molar mass of the structure shown. Structures can show the parent of a compound that is named as a salt.

Consider 15 compounds from US5698547A, “Cephalosporin antibiotics” (Microcide Pharmaceuticals, Inc., priority 1995, dated 1997).

With `O=C(CSc1ccncc1)N[C@@H]1C(=O)N2C(C(=O)O)=C(Sc3ccnn3-c3ccccc3)CS[C@H]12` [Cmpd 110, (7R)-7-[(4-pyridylthioacetyl)amino]-3-(1-N-phenylpyrazol-5-ylthio)-3-cephem-4-carboxylic acid], the MIC (commonly the least concentration at which growth counts as inhibited) in assay [1] worked out at 2 µg/mL (≈ 3.8 µM). Further, the Mortality in assay [2] (dose 0.625 mg/kg) was 8/10; in assay [2] (dose 1.25 mg/kg), 7/10; in assay [2] (dose 2.5 mg/kg) it was 8/10; in assay [2] (dose 5 mg/kg), 6/10; in assay [2] (dose 10 mg/kg), 0/10.
Regarding `CSCC(=O)N[C@@H]1C(=O)N2C(C(=O)O)=C(Sc3ccccc3CSC(=N)N)CS[C@H]12` [Cmpd 127, (7R)-7-[(methylthioacetyl)amino]-3-(2-isothiouroniummethylphenylthio)-3-cephem-4-carboxylate, inner salt], in assay [1], the MIC stood at 4 µg/mL. The Mortality is recorded as 6/10 in assay [2] (dose 0.3125 mg/kg); 5/10 in assay [2] (dose 0.625 mg/kg); 4/10 in assay [2] (dose 1.25 mg/kg); 2/10 in assay [2] (dose 2.5 mg/kg); 1/10 in assay [2] (dose 5 mg/kg).
For the compound `N=C(N)SCc1ccccc1SC1=C(C(=O)O)N2C(=O)[C@@H](NC(=O)Cc3ccccc3CN)[C@H]2SC1` [Cmpd 101, (7R)-7-[((2-Aminomethylphenyl)acetyl)amino]-3-(2-isothiouroniummethylphenylthio)-3-cephem-4-carboxylate, trifluoroacetic acid salt], in assay [1], the MIC came out at 4 µg/mL. The Mortality in assay [2] (dose 0.625 mg/kg) was 5/10; in assay [2] (dose 1.25 mg/kg) it was 2/10; in assay [2] (dose 2.5 mg/kg), 0/10; in assay [2] (dose 5 mg/kg), 0/10; in assay [2] (dose 10 mg/kg), 0/10.
For `O=C(O)C1=C(Sc2ccnn2-c2ccccc2)CS[C@@H]2[C@H](NC(=O)C3SCCS3)C(=O)N12` [Cmpd 115, (7R)-7-[(2-dithiolanylcarbonyl)amino]-3-(1-N-phenylpyrazol-5-ylthio)-3-cephem-4-carboxylic acid], the MIC in assay [1] stood at 4 µg/mL (≈ 7.89 µM). Besides, the Mortality is 8/10 in assay [2] (dose 0.625 mg/kg); 9/10 in assay [2] (dose 1.25 mg/kg); 7/10 in assay [2] (dose 2.5 mg/kg); 4/10 in assay [2] (dose 5 mg/kg); 0/10 in assay [2] (dose 10 mg/kg).
`O=C(Cc1ccccc1)N[C@@H]1C(=O)N2C(C(=O)O)=C(Sc3ccnn3-c3ccccc3)CS[C@H]12` [Cmpd 87, (7R)-7-[(Phenylacetyl)amino]-3-(1-N-phenylpyrazol-5-ylthio)-3-cephem-4-carboxylic acid]: the MIC in assay [1] was determined as 1 µg/mL (≈ 2.03 µM). For the same compound, the Mortality in assay [2] (dose 2 mg/kg) is given as 4/10; in assay [2] (dose 4 mg/kg), 3/10; in assay [2] (dose 8 mg/kg), 0/10; in assay [2] (dose 16 mg/kg) it was 0/10.
Take `O=C(CC1CC1)N[C@@H]1C(=O)N2C(C(=O)O)=C(Sc3ccnn3-c3ccccc3)CS[C@H]12` [Cmpd 107, (7R)-7-[(cyclopropylacetyl)amino]-3-(1-N-phenylpyrazol-5-ylthio)-3-cephem-4-carboxylic acid]: in assay [1], the MIC was 4 µg/mL (≈ 8.76 µM). The Mortality was 8/10 in assay [2] (dose 0.625 mg/kg); 6/10 in assay [2] (dose 1.25 mg/kg); 5/10 in assay [2] (dose 2.5 mg/kg); 0/10 in assay [2] (dose 5 mg/kg); 0/10 in assay [2] (dose 10 mg/kg).
`O=C(CSc1ccccc1)N[C@@H]1C(=O)N2C(C(=O)O)=C(Sc3ccnn3-c3ccccc3)CS[C@H]12` [Cmpd 119, (7R)-7-[(phenylthioacetyl)amino]-3-(1-N-phenylpyrazol-5-ylthio)-3-cephem-4-carboxylic acid]: in assay [1], the MIC was 2 µg/mL (≈ 3.81 µM). For the same compound, the Mortality in assay [2] (dose 0.3125 mg/kg) is 10/10; in assay [2] (dose 0.625 mg/kg), 9/10; in assay [2] (dose 1.25 mg/kg), 10/10; in assay [2] (dose 2.5 mg/kg), 7/10; in assay [2] (dose 5 mg/kg), 8/10.
In the case of `CO/N=C(\C(=O)N[C@@H]1C(=O)N2C(C(=O)O)=C(COC(C)=O)CS[C@H]12)c1csc(N)n1` [Cefotaxime, (7R)-3-Acetoxymethyl-7-[(Z)-2-(aminothiazol-4-yl)-2-(methoxyimino)acetamido]-3-cephem-4-carboxylic acid, reference compound], the MIC in assay [1] is greater than 32 µg/mL. Also, the Mortality was 8/10 in assay [2] (dose 2.5 mg/kg); 5/10 in assay [2] (dose 5 mg/kg); 3/10 in assay [2] (dose 10 mg/kg); 4/10 in assay [2] (dose 20 mg/kg); 1/10 in assay [2] (dose 40 mg/kg).
Regarding `N=C(N)SCc1ccc(CC(=O)N[C@@H]2C(=O)N3C(C(=O)O)=C(Sc4ccccc4CSC(=N)N)CS[C@H]23)cc1` [Cmpd 97, (7R)-7-[((4-isothiouroniummethylphenyl)acetyl)amino]-3-(2-isothiouroniummethylphenylthio)-3-cephem-4-carboxylate, trifluoroacetic acid salt], the MIC in assay [1] stood at 2 µg/mL. Besides, the Mortality is on record as 8/10 in assay [2] (dose 0.3125 mg/kg); 5/10 in assay [2] (dose 0.625 mg/kg); 3/10 in assay [2] (dose 1.25 mg/kg); 2/10 in assay [2] (dose 2.5 mg/kg); 0/10 in assay [2] (dose 5 mg/kg).
`O=C(O)C1=C(Sc2ccnn2-c2ccccc2)CS[C@@H]2[C@H](NC(=O)/C(=N\O)c3ccccc3)C(=O)N12` [Cmpd 130, (7R)-7-[(Z)-2-(Phenyl)-2-(hydroxyimino)acetamido]-3-(1-N-(phenyl)pyrazol-5-ylthio)-3-cephem-4-carboxylic acid]: the MIC in assay [1] stood at 2 µg/mL (≈ 3.83 µM). Moreover, the Mortality in assay [2] (dose 0.625 mg/kg) is 10/10; in assay [2] (dose 1.25 mg/kg), 7/10; in assay [2] (dose 2.5 mg/kg), 9/10; in assay [2] (dose 5 mg/kg), 6/10; in assay [2] (dose 10 mg/kg), 6/10.
Take `N#CCC(=O)N[C@@H]1C(=O)N2C(C(=O)O)=C(Sc3ccccc3I)CS[C@H]12` [Cmpd 17, (7R)-7-[(Cyanoacetyl)amino]-3-(o-iodophenylthio)-3-cephem-4-carboxylic acid]: the MIC in assay [1] is 2 µg/mL (≈ 3.99 µM). In addition, the Mortality in assay [2] (dose 2 mg/kg) is on record as 8/10; in assay [2] (dose 4 mg/kg) it was 5/10; in assay [2] (dose 8 mg/kg) it was 0/10; in assay [2] (dose 16 mg/kg), 0/10.
For the compound `Nc1nc(/C(=N/OCC2CC2)C(=O)N[C@@H]2C(=O)N3C(C(=O)O)=C(Sc4ccnn4-c4ccccc4)CS[C@H]23)cs1` [Cmpd 108, (7R)-7-[(Z)-2-(2-aminothiazol-4-yl)-2-(cyclopropylmethyloxyimino)acetamido]-3-(1-N-phenylpyrazol-5-ylthio)-3-cephem-4-carboxylic acid], the MIC in assay [1] is 4 µg/mL (≈ 6.69 µM). In addition, the Mortality in assay [2] (dose 0.625 mg/kg) is 9/10; in assay [2] (dose 1.25 mg/kg), 8/10; in assay [2] (dose 2.5 mg/kg) it was 9/10; in assay [2] (dose 5 mg/kg) it was 10/10; in assay [2] (dose 10 mg/kg) it was 10/10.
As to `O=C(Cc1ccccc1)N[C@@H]1C(=O)N2C(C(=O)O)=C(Sc3cccnc3-n3cccn3)CS[C@H]12` [Cmpd 103, (7R)-7-[(Phenylacetyl)amino]-3-(2-(pyrazol-1-yl)pyridin-3-ylthio)-3-cephem-4-carboxylic acid], in assay [1], the MIC was found to be 2 µg/mL (≈ 4.05 µM). For the same compound, the Mortality in assay [2] (dose 0.625 mg/kg) is on record as 7/10; in assay [2] (dose 1.25 mg/kg), 7/10; in assay [2] (dose 2.5 mg/kg), 7/10; in assay [2] (dose 5 mg/kg), 5/10; in assay [2] (dose 10 mg/kg), 0/10.
Regarding `N#Cc1ccccc1SC1=C(C(=O)O)N2C(=O)[C@@H](NC(=O)Cc3ccccc3)[C@H]2SC1` [Cmpd 41, (7R)-7-[(Phenylacetyl)amino]-3-(2-cyanophenylthio)-3-cephem-4-carboxylic acid], the MIC in assay [1] turned out to be 1 µg/mL (≈ 2.21 µM). Further, the Mortality is 8/10 in assay [2] (dose 0.625 mg/kg); 6/10 in assay [2] (dose 1.25 mg/kg); 0/10 in assay [2] (dose 2.5 mg/kg); 0/10 in assay [2] (dose 5 mg/kg); 0/10 in assay [2] (dose 10 mg/kg).
Turning to `O=C(Cc1ccccc1)N[C@@H]1C(=O)N2C(C(=O)O)=C(Sc3cccnc3-c3ccccc3)CS[C@H]12` [Cmpd 81, (7R)-7-[(Phenylacetyl)amino]-3-(2-phenylpyridin-3-ylthio)-3-cephem-4-carboxylic acid], the MIC in assay [1] stood at 2 µg/mL (≈ 3.97 µM). For the same compound, the Mortality is recorded as 8/10 in assay [2] (dose 2 mg/kg), 10/10 in assay [2] (dose 4 mg/kg), 5/10 in assay [2] (dose 8 mg/kg) and 2/10 in assay [2] (dose 16 mg/kg).
